Measured values: ChEMBL document CHEMBL1151338, “Alkaloids of Thalictrum XXX. Eleven Minor Alkaloids From Thalictrum rugosum” (1980)
Active and inactive are the calls of the source. The rule behind the calls is not given here.

Columns and labels:
[1] = system: Staphylococcus aureus; assay: Antimicrobial activity against Staphylococcus aureus ATCC 13709a; format: functional
[2] = system: Klebsiella pneumoniae; assay: Antimicrobial activity against Klebsiella pneumoniae ATCC 10031 at 1000 ug/ml; format: functional, organism-based
[3] = system: Candida albicans; assay: Antimicrobial activity against Candida albicans ATCC 10231 at 1000 ug/ml; format: functional, organism-based
[4] = system: Escherichia coli; assay: Antimicrobial activity against Escherichia coli ATCC 9637 at 1000 ug/ml; format: functional, organism-based
[5] = system: Salmonella enterica subsp. enterica serovar Gallinarum; assay: Antimicrobial activity against Salmonella gallinarum ATCC 9184 at 1000 ug/ml; format: functional, organism-based
[6] = system: Mycolicibacterium smegmatis; assay: Antimicrobial activity against Mycobacterium smegmatis ATCC 607; format: functional
[7] = system: Candida albicans; assay: Antimicrobial activity against Candida albicans ATCC 10231; format: functional
[8] = system: Salmonella enterica subsp. enterica serovar Gallinarum; assay: Antimicrobial activity against Salmonella gallinarum ATCC 9184; format: functional
[9] = system: Klebsiella pneumoniae; assay: Antimicrobial activity against Klebsiella pneumoniae ATCC 10031; format: functional
[10] = system: Escherichia coli; assay: Antimicrobial activity against Escherichia coli ATCC 9637; format: functional
[11] = system: Mycolicibacterium smegmatis; assay: Antimicrobial activity against Mycobacterium smegmatis ATCC 607 at 1000 ug/ml; format: functional, organism-based
[12] = system: Staphylococcus aureus; assay: Antimicrobial activity against Staphylococcus aureus ATCC 13709a at 1000 ug/ml; format: functional, organism-based

COc1cc2c(cc1O)[C@H](Cc1ccc(OC)c(Oc3ccc(C[C@H]4c5cc(OC)c(OC)cc5CCN4C)cc3)c1)N(C)CC2 [NEOTHALIBRINE]
Activity [1]: 1000 µg/mL | Activity [2]: inactive | Activity [3]: inactive | Activity [4]: inactive | Activity [5]: inactive | Activity [6]: 1000 µg/mL

COc1cc2c3c(c1O)Oc1c4c(cc(OC)c1OC)[C@H](Cc1ccc(cc1)Oc1cc(ccc1O)C[C@@H]3N(C)CC2)N(C)CC4 [THALIGOSIDINE]
Activity [1]: 1000 µg/mL | Activity [7]: 1000 µg/mL | Activity [2]: inactive | Activity [4]: inactive | Activity [5]: inactive | Activity [6]: 100 µg/mL

COc1cc2c(cc1O)[C@H](Cc1ccc(OC)c(Oc3ccc(C[C@H]4c5cc(OC)c(OC)c(O)c5CCN4C)cc3)c1)N(C)CC2 [THALIRUGINE]
Activity [1]: 1000 µg/mL | Activity [2]: inactive | Activity [3]: inactive | Activity [4]: inactive | Activity [5]: inactive | Activity [6]: 1000 µg/mL

COc1cc(CCN(C)C)c2ccc3cc4c(cc3c2c1OC)OCO4 [THALICTHUBERINEC]
Activity [1]: 100 µg/mL | Activity [7]: 50 µg/mL | Activity [8]: 1000 µg/mL | Activity [4]: inactive | Activity [6]: 25 µg/mL | Activity [9]: 1000 µg/mL

CCOc1c2c3c(c(OC)c1OC)Oc1cc4c(cc1OC)CCN(C)[C@H]4Cc1ccc(OC)c(c1)Oc1ccc(cc1)C[C@@H]3N(C)CC2 [THALIGOSINE ETHYL ETHER]
Activity [1]: 100 µg/mL | Activity [7]: 100 µg/mL | Activity [4]: inactive | Activity [5]: inactive | Activity [6]: 100 µg/mL | Activity [9]: 1000 µg/mL

CN[C@@H]1[C@H](O[C@H]2[C@H](O[C@H]3[C@H](O)[C@@H](O)[C@H](N=C(N)N)[C@@H](O)[C@@H]3N=C(N)N)O[C@@H](C)[C@]2(O)C=O)O[C@@H](CO)[C@H](O)[C@H]1O [STREPTOMYCIN]
Activity [1]: 3.1 µg/mL | Activity [3]: inactive | Activity [8]: 25 µg/mL | Activity [6]: 0.78 µg/mL | Activity [9]: 1.56 µg/mL | Activity [10]: 12.5 µg/mL

COc1ccc(C[C@H]2c3cc(OC)c(OC)c(O)c3CCN2C)cc1Oc1ccc(C[C@H]2c3cc(OC)c(OC)c(O)c3CCN2C)cc1 [THALIRUGIDINE]
Activity [1]: 1000 µg/mL | Activity [2]: inactive | Activity [3]: inactive | Activity [4]: inactive | Activity [5]: inactive | Activity [6]: 1000 µg/mL

COc1cc2c3cc1Oc1c(OC)c(OC)c(OC)c4c1[C@H](Cc1ccc(cc1)Oc1cc(ccc1O)C[C@@H]3N(C)CC2)N(C)CC4 [THALIGOSININE]
Activity [1]: 1000 µg/mL | Activity [2]: inactive | Activity [3]: inactive | Activity [4]: inactive | Activity [5]: inactive | Activity [6]: 1000 µg/mL | Activity [9]: 1000 µg/mL

COc1ccc2cc1Oc1ccc(cc1)C[C@H]1c3c(c(O)c(OC)c(OC)c3Oc3cc4c(cc3OC)CCN(C)[C@H]4C2)CCN1C [THALIGOSINE]
Activity [1]: 100 µg/mL | Activity [7]: 1000 µg/mL | Activity [4]: inactive | Activity [5]: inactive | Activity [6]: 100 µg/mL

O=C1NCCc2cc3c(cc21)OCO3
Activity [2]: inactive | Activity [11]: inactive | Activity [3]: inactive | Activity [4]: inactive | Activity [5]: inactive | Activity [12]: inactive
